Source: patent US9988423B2, “Organogels and emulsions for biological and non-biological applications” (Agency for Science, Technology and Research, priority 2012, dated 2018)
Residues, ends and D or L forms follow the SMILES beside them. No end group written: not given here.

Key:
[1] = Organogel formation (gelation) of peptides in organic solvents; assay type: physicochemical
Experimental: The exemplary peptides are Ac-ID-COOH (L) (dimer), Ac-IVD-COOH (L) (trimer) and Ac-LIVAGD-COOH (L) (hexamer). The organogels depicted in (C) are (1) Ac-ID-COOH (L) 10 mg/ml in ethyl acetate, (2) Ac-ID-COOH (L) 10 mg/ml in toluene, (3) Ac-IVD-COOH (L) 2 mg/ml in acetonitrile, (4) Ac-IVD-COOH (L) 2 mg/ml in ethyl acetate, (5) Ac-IVD-COOH (L) 5 mg/ml in acetone, (6) Ac-LIVAGD-COOH (L) 5 mg/ml in toluene, and (7) Ac-LIVAGD-COOH (L) 10 mg/ml in ethyl acetate.
The organogels depicted in (B) are (1) Ac-IVF-COOH (L) 5 mg/ml in ethyl acetate, (2) Ac-IVF-COOH (L) 5 mg/ml in acetone, (3) Ac-IVF-COOH (L) 5 mg/ml in acetonitrile, (4) Ac-IVF-COOH (L) 5 mg/ml in chloroform, (5) Ac-IVW-COOH (L) 5 mg/ml in acetone, (6) Ac-IVW-COOH (L) 5 mg/ml in ethyl acetate, and (7) Ac-LIVAGF-COOH (L) 5 mg/ml in acetone.
Gels with increasing concentration of Ac-IVD-COOH (L) were prepared in ethyl acetate. […] Organogels of 2 mg/ml and 5 mg/ml Ac-IVD-COOH (L) in ethyl acetate were analyzed by field emission scanning electron microscopy (FESEM). FIGS. 3B and 3C show the effect of the peptide concentration on organogelation for the hexamer Ac-LIVAGD-COOH (L) in acetonitrile or ethyl acetate.
The formulation of the peptide organogels depends on several factors, such as peptide concentration, polarity of the organic solvent, peptide sequence and type of solvent used (see FIG. 3 as well as FIGS. 10A-G and 11). For example, increasing the peptide concentration reduced the gelation time for the formulation of peptide organogels. Based on the experimental data disclosed herein and his general knowledge, a person skilled in the art would have no problems in figuring out suitable gelation conditions (e.g. a suitable organic solvent) for a given peptide. For example, a skilled person knows about the nature of an organic solvent with respect to its polarity or non-polarity. […] Obviously, there is interaction with the polar head group of the peptide. […] Also, it seems that planar configurations (benzene ring, C═O, nitrile) within the solvent helps to stabilize the gel. This might be explained with a more favourable interaction of p-, sp^2-, or sp-orbitals.

[2] = Stability of peptide emulsions in oil:water mixtures (phase separation); assay type: physicochemical; conditions: 7.5 mg/ml peptide in oil:water 50:50, 80:20, 20:80; in comparison to controls
Experimental: 7.5 mg/ml Ac-IVD-COOH (L) were dissolved in solvent mixtures of oil:water (50:50, 80:20, 20:80).

Row | organogel formation in organic solvents [1] | effect of peptide concentration on organogelation ([1]; in acetonitrile, increasing concentration 1-20 mg/ml) | effect of peptide concentration on organogelation ([1]; in ethyl acetate, increasing concentration 5, 10, 20 mg/ml) | phase separation of emulsion [2] | effect of peptide concentration on organogelation ([1]; in ethyl acetate, concentrations above 10 mg/ml (1% w/v)) | preferred gelation solvent ([1]; screening for quantum dot loading) | Compound
1 | formed organogels | – | – | – | – | – | CC[C@H](C)[C@H](NC(C)=O)C(=O)N[C@H](C(=O)N[C@@H](Cc1c[nH]c2ccccc12)C(=O)O)C(C)C [Ac-IVW-COOH (L)] (Ac-Ile-Val-Trp-OH)
2 | formed organogels | increased size of the organogel | partial gelation | – | – | – | Ac-LIVAGD [Ac-LIVAGD-COOH (L)]
3 | formed organogels | – | – | No phase separation | only partial gelation | gelled preferably in ethyl acetate | CC[C@H](C)[C@H](NC(C)=O)C(=O)N[C@H](C(=O)N[C@@H](CC(=O)O)C(=O)O)C(C)C [Ac-IVD-COOH (L)] (Ac-Ile-Val-Asp-OH)
4 | formed organogels | – | – | – | – | – | CC[C@H](C)[C@H](NC(C)=O)C(=O)N[C@H](C(=O)N[C@@H](Cc1ccccc1)C(=O)O)C(C)C [Ac-IVF-COOH (L)]
